# Data reported in ChEMBL document CHEMBL1201862, “PubChem BioAssay data set” (2004).
#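 All cell lines were grown in 96-well plates and treated with compound for 48 hours. GI50 = concentration required for 50% inhibition of growth.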 Calls of active or inactive are those of the source. No stated cut-off is given here; in the data, active = GI50 up to about 1.1 µM and inactive = higher.
# Legend:
# Test in all cases: inhibition of tumour cell growth, NCI panel, 48 h
# SF-295 = tested on: SF-295
# UO-31 = tested on: UO-31
# SNB-19 = tested on: SNB-19
# OVCAR-5 = tested on: OVCAR-5
# SR = tested on: SR
# OVCAR-4 = tested on: OVCAR-4
# HL-60 = tested on: HL-60
# NCI-H522 = tested on: NCI-H522
# NCI-H460 = tested on: NCI-H460
# RPMI-8226 = tested on: RPMI-8226
# MDA-N = tested on: MDA-N
# BT-549 = tested on: BT-549
# OVCAR-8 = tested on: OVCAR-8
# T47D = tested on: T47D
# SNB-75 = tested on: SNB-75
# CCRF-CEM = tested on: CCRF-CEM
# MDA-MB-435 = tested on: MDA-MB-435
# HCT-15 = tested on: HCT-15
# DU-145 = tested on: DU-145
# A498 = tested on: A498
# UACC-62 = tested on: UACC-62
# TK-10 = tested on: TK-10
# SF-539 = tested on: SF-539
# COLO 205 = tested on: COLO 205
# NCI/ADR-RES = tested on: NCI/ADR-RES
# SK-MEL-28 = tested on: SK-MEL-28
# HOP-92 = tested on: HOP-92
# MCF7 = tested on: MCF7
# Hs-578T = tested on: Hs-578T
# NCI-H226 = tested on: NCI-H226
# RXF 393 = tested on: RXF 393
# SN12C = tested on: SN12C
# M14 = tested on: M14
# OVCAR-3 = tested on: OVCAR-3
# Malme-3M = tested on: Malme-3M
# HCC 2998 = tested on: HCC 2998
# K562 = tested on: K562
# SK-MEL-5 = tested on: SK-MEL-5
# CAKI-1 = tested on: CAKI-1
# SF-268 = tested on: SF-268
# SW-620 = tested on: SW-620
# UACC-257 = tested on: UACC-257
# A549 = tested on: A549
# ACHN = tested on: ACHN
# IGROV-1 = tested on: IGROV-1
# U-251 = tested on: U-251
# SK-MEL-2 = tested on: SK-MEL-2
# HOP-62 = tested on: HOP-62
# HT-29 = tested on: HT-29
# HCT-116 = tested on: HCT-116
# MDA-MB-231 = tested on: MDA-MB-231
# PC-3 = tested on: PC-3
# LOX IMVI = tested on: LOX IMVI
# NCI-H23 = tested on: NCI-H23
# KM12 = tested on: KM12
# 786-0 = tested on: 786-0
# MOLT-4 = tested on: MOLT-4
smiles,measurement,setting,value
N#CC1=C(S)N(C2OC(CO)C(O)C(O)C2O)C(c2ccccc2)=CC1c1cccs1 (configuration not stated),GI50,SF-295,17.5 µM (inactive)
same,GI50,UO-31,48.8 µM (inactive)
same,GI50,SNB-19,> 10 µM (inactive)
same,GI50,OVCAR-5,51.1 µM (inactive)
same,GI50,SR,23 µM (inactive)
same,GI50,OVCAR-4,33.8 µM (inactive)
same,GI50,HL-60,28.9 µM (inactive)
same,GI50,NCI-H522,18.1 µM (inactive)
same,GI50,NCI-H460,17.7 µM (inactive)
same,GI50,RPMI-8226,26.3 µM (inactive)
same,GI50,MDA-N,15.4 µM (inactive)
same,GI50,BT-549,16.1 µM (inactive)
same,GI50,OVCAR-8,22.3 µM (inactive)
same,GI50,T47D,19.2 µM (inactive)
same,GI50,SNB-75,20.5 µM (inactive)
same,GI50,CCRF-CEM,22.3 µM (inactive)
same,GI50,MDA-MB-435,20.3 µM (inactive)
same,GI50,HCT-15,32.7 µM
same,GI50,DU-145,> 10 µM (inactive)
same,GI50,A498,> 10 µM (inactive)
same,GI50,UACC-62,18.8 µM (inactive)
same,GI50,TK-10,29 µM (inactive)
same,GI50,SF-539,18.6 µM (inactive)
same,GI50,COLO 205,21.1 µM (inactive)
same,GI50,NCI/ADR-RES,> 100 µM (inactive)
same,GI50,SK-MEL-28,21.1 µM (inactive)
same,GI50,HOP-92,23.3 µM (inactive)
same,GI50,MCF7,15.3 µM (inactive)
same,GI50,Hs-578T,23.4 µM (inactive)
same,GI50,NCI-H226,16.6 µM (inactive)
same,GI50,RXF 393,20 µM (inactive)
same,GI50,SN12C,14.7 µM (inactive)
same,GI50,M14,33.3 µM (inactive)
same,GI50,OVCAR-3,27.9 µM (inactive)
same,GI50,Malme-3M,19.3 µM (inactive)
same,GI50,HCC 2998,21.7 µM (inactive)
same,GI50,K562,31.1 µM (inactive)
same,GI50,SK-MEL-5,14.1 µM (inactive)
same,GI50,CAKI-1,23.1 µM (inactive)
same,GI50,SF-268,24.8 µM (inactive)
same,GI50,SW-620,16.6 µM (inactive)
same,GI50,UACC-257,21.7 µM (inactive)
same,GI50,A549,20 µM (inactive)
same,GI50,ACHN,18.7 µM (inactive)
same,GI50,IGROV-1,22.6 µM (inactive)
same,GI50,U-251,20 µM (inactive)
same,GI50,SK-MEL-2,22.5 µM (inactive)
same,GI50,HOP-62,22.1 µM (inactive)
same,GI50,HT-29,17 µM (inactive)
same,GI50,HCT-116,26.3 µM (inactive)
same,GI50,MDA-MB-231,27.2 µM (inactive)
same,GI50,PC-3,15.1 µM (inactive)
same,GI50,LOX IMVI,18.7 µM (inactive)
same,GI50,NCI-H23,28.1 µM (inactive)
same,GI50,KM12,18.8 µM (inactive)
same,GI50,786-0,16.5 µM (inactive)
same,GI50,MOLT-4,22.7 µM (inactive)
